The source of these data is patent US4357326A, “Multi-glucopyranosyl-fructofuranosyl-galactopyranosyl-glucopyranoside sulfate salts and methods of use” (American Cyanamid Company, priority 1981, dated 1982).

Structures can show the parent of a compound that is named as a salt.

Test [1] deals with activated human C1 (Homo sapiens, UniProt P09871). The experiment in a line: Test Code 026 (C1 inhibitor). In kind it is biochemical. Conditions: in vitro; serial twofold dilution assay, higher well number indicates higher activity. From the text:
(§1) An active inhibitor protects C2 from C1 and C4; (ii) Test Code 035 (C3-C9 inhibitor)--This test determines the ability of the late components of human complement (C3-C9) to lyse EAC 142 in the presence of appropriate dilutions of the test compound. An active inhibitor protects EAC 142 from lysis by human C3-C9; (iii) Test Code 036 (C-Shunt inhibitor)--In this test human erythrocytes rendered fragile are lysed in autologous serum via the shunt pathway activated by cobra venom factor in the presence of appropriate dilutions of the test compound. Inhibition of the shunt pathway results in failure of lysis; (iv) Cap 50 Test--Here, appropriate amounts of the test compound are added to a pool of guinea pig serum in vitro, after which the complement level is determined in undiluted serum by the serum capillary tube assay of U.S. Pat. No. 3,876,376. The concentration of compound inhibiting 50% is reported; and (v) Guinea Pig Intraperitoneal Test (GPIP)--Guinea pigs weighing about 300 g are dosed intraperitoneally (i.p.) with 200 mg/kg of the test compound dissolved in saline and adjusted to pH 7-8. Approximately 0.4 ml blood samples, taken by orbital sinus puncture 30 minutes and one hour after injections, are collected directly into centrifuge tubes; 5 ml blood samples, taken by decapitation 2 hours after injection are collected directly into disPo® beakers. The samples were allowed to clot, centrifuged, and the resultant sera were assayed for complement activity using the capillary complement assay referred to above. Percent inhibition is calculated by comparison with simultaneous controls. The results of the GPIP appear in Table I together with results of Test Code 026, 035, 036 and Cap 50.

Test [2] has as its system late components of human complement (C3-C9). The experiment in a line: Test Code 035 (C3-C9 inhibitor), lysis of EAC 142. In kind it is biochemical. Conditions: in vitro; serial twofold dilution assay, higher well number indicates higher activity.
Excerpt: as §1

The test system of test [3] is shunt pathway activated by cobra venom factor. The experiment in a line: Test Code 036 (C-Shunt inhibitor), lysis of fragile human erythrocytes in autologous serum. The note with it: in vitro; serial twofold dilution assay, higher well number indicates higher activity. In kind it is cell-based.
Excerpt: as §1

Test [4] concerns total hemolytic complement activity of human serum. The note with it: in vitro and in vivo, judged by reduction in total hemolytic complement activity; cited from earlier work.
For test [5], the system named is complement activity of sera. Briefly: Guinea Pig Intraperitoneal Test (GPIP). In kind it is in vivo. The note with it: 200 mg/kg i.p.
Excerpt: as §1

Take `O=S(=O)(O)OC[C@H]1O[C@H](OC[C@H]2O[C@H](O[C@]3(COS(=O)(=O)O)O[C@H](CO[C@@H]4O[C@H](COS(=O)(=O)O)[C@@H](O[C@H]5O[C@H](COS(=O)(=O)O)[C@@H](O[C@H]6O[C@H](COS(=O)(=O)O)[C@@H](O[C@H]7O[C@H](COS(=O)(=O)O)[C@@H](O[C@H]8O[C@H](COS(=O)(=O)O)[C@@H](O[C@H]9O[C@H](COS(=O)(=O)O)[C@@H](O[C@H]%10O[C@H](COS(=O)(=O)O)[C@@H](OS(=O)(=O)O)[C@H](OS(=O)(=O)O)[C@H]%10OS(=O)(=O)O)[C@H](OS(=O)(=O)O)[C@H]9OS(=O)(=O)O)[C@H](OS(=O)(=O)O)[C@H]8OS(=O)(=O)O)[C@H](OS(=O)(=O)O)[C@H]7OS(=O)(=O)O)[C@H](OS(=O)(=O)O)[C@H]6OS(=O)(=O)O)[C@H](OS(=O)(=O)O)[C@H]5OS(=O)(=O)O)[C@H](OS(=O)(=O)O)[C@H]4OS(=O)(=O)O)[C@@H](OS(=O)(=O)O)[C@@H]3OS(=O)(=O)O)[C@H](OS(=O)(=O)O)[C@@H](OS(=O)(=O)O)[C@@H]2OS(=O)(=O)O)[C@H](OS(=O)(=O)O)[C@@H](OS(=O)(=O)O)[C@H]1OS(=O)(=O)O` [drawing 26, O-α-D-Glucopyranosyl(1→4)-[O-α-D-glucopyranosyl(1→4)]5 -O-β-D-glucopyranosyl(1→6)-β-D-fructofuranosyl-O-α-D-galactopyranosyl(1→6)-α-D-glucopyranoside dotriacontakis(H-sulfate), dotriacontasodium salt]: in test [1], the “C1 026 Wells” value is recorded as 9 Wells. The “C-Late 035 Wells” value in test [2] is reported as 3 Wells. Moreover, in test [3], the “C-Shunt Inhibition 036 Wells” value is reported as 5 Wells.
Take `O=S(=O)(O)OC[C@H]1O[C@H](OC[C@H]2O[C@H](O[C@]3(COS(=O)(=O)O)O[C@H](CO[C@@H]4O[C@H](COS(=O)(=O)O)[C@@H](O[C@H]5O[C@H](COS(=O)(=O)O)[C@@H](O[C@H]6O[C@H](COS(=O)(=O)O)[C@@H](O[C@H]7O[C@H](COS(=O)(=O)O)[C@@H](O[C@H]8O[C@H](COS(=O)(=O)O)[C@@H](O[C@H]9O[C@H](COS(=O)(=O)O)[C@@H](O[C@H]%10O[C@H](COS(=O)(=O)O)[C@@H](OS(=O)(=O)O)[C@H](OS(=O)(=O)O)[C@H]%10OS(=O)(=O)O)[C@H](OS(=O)(=O)O)[C@H]9OS(=O)(=O)O)[C@H](OS(=O)(=O)O)[C@H]8OS(=O)(=O)O)[C@H](OS(=O)(=O)O)[C@H]7OS(=O)(=O)O)[C@H](OS(=O)(=O)O)[C@H]6OS(=O)(=O)O)[C@H](OS(=O)(=O)O)[C@H]5OS(=O)(=O)O)[C@H](OS(=O)(=O)O)[C@H]4OS(=O)(=O)O)[C@@H](OS(=O)(=O)O)[C@@H]3OS(=O)(=O)O)[C@H](OS(=O)(=O)O)[C@@H](OS(=O)(=O)O)[C@@H]2OS(=O)(=O)O)[C@H](OS(=O)(=O)O)[C@@H](OS(=O)(=O)O)[C@H]1OS(=O)(=O)O` [drawing 25, O-α-D-Glucopyranosyl(1→4)-[O-α-D-glucopyranosyl(1→4)]5 -O-β-D-glucopyranosyl(1→6)-β-D-fructofuranosyl-O-α-D-galactopyranosyl(1→6)-α-D-glucopyranoside dotriacontakis(H-sulfate), dotriacontasalt with trimethylamine]: the “C1 026 Wells” value in test [1] came to 9 Wells. For the same compound, in test [2], the “C-Late 035 Wells” value stood at 1 Wells. Besides, the “C-Shunt Inhibition 036 Wells” value in test [3] came out at 4 Wells.
As to `O=S(=O)(O)OC[C@H]1O[C@H](OC[C@H]2O[C@H](O[C@]3(COS(=O)(=O)O)O[C@H](CO[C@@H]4O[C@H](COS(=O)(=O)O)[C@@H](O[C@H]5O[C@H](COS(=O)(=O)O)[C@@H](O[C@H]6O[C@H](COS(=O)(=O)O)[C@@H](OS(=O)(=O)O)[C@H](OS(=O)(=O)O)[C@H]6OS(=O)(=O)O)[C@H](OS(=O)(=O)O)[C@H]5OS(=O)(=O)O)[C@H](OS(=O)(=O)O)[C@H]4OS(=O)(=O)O)[C@@H](OS(=O)(=O)O)[C@@H]3OS(=O)(=O)O)[C@H](OS(=O)(=O)O)[C@@H](OS(=O)(=O)O)[C@@H]2OS(=O)(=O)O)[C@H](OS(=O)(=O)O)[C@@H](OS(=O)(=O)O)[C@H]1OS(=O)(=O)O` [drawing 23, O-α-D-Glucopyranosyl(1→4)-O-α-D-glucopyranosyl(1→4)-O-β-D-glucopyranosyl(1→6)-β-D-fructofuranosyl-O-α-D-galactopyranosyl(1→6)-α-D-glucopyranoside eicosakis(H-sulfate) eicosasalt with trimethylamine], the “C1 026 Wells” value in test [1] is given as 9 Wells. Moreover, in test [2], the “C-Late 035 Wells” value is listed as 2 Wells. Moreover, the “C-Shunt Inhibition 036 Wells” value in test [3] is recorded as 5 Wells.
With pentosanpolysulfoester, in test [4], the “anticomplementary activity on human serum” value is “has an anticomplementary activity on human serum, both in vitro and in vivo”.
As for `O=S(=O)(O)OC[C@H]1O[C@H](OC[C@H]2O[C@H](O[C@]3(COS(=O)(=O)O)O[C@H](CO[C@@H]4O[C@H](COS(=O)(=O)O)[C@@H](O[C@H]5O[C@H](COS(=O)(=O)O)[C@@H](O[C@H]6O[C@H](COS(=O)(=O)O)[C@@H](OS(=O)(=O)O)[C@H](OS(=O)(=O)O)[C@H]6OS(=O)(=O)O)[C@H](OS(=O)(=O)O)[C@H]5OS(=O)(=O)O)[C@H](OS(=O)(=O)O)[C@H]4OS(=O)(=O)O)[C@@H](OS(=O)(=O)O)[C@@H]3OS(=O)(=O)O)[C@H](OS(=O)(=O)O)[C@@H](OS(=O)(=O)O)[C@@H]2OS(=O)(=O)O)[C@H](OS(=O)(=O)O)[C@@H](OS(=O)(=O)O)[C@H]1OS(=O)(=O)O` [drawing 24, O-α-D-Glucopyranosyl(1→4)-O-α-D-glucopyranosyl(1→4)-O-β-D-glucopyranosyl(1→6)-β-D-fructofuranosyl-O-α-D-galactopyranosyl(1→6)-α-D-glucopyranoside eicosakis(H-sulfate), eicosasodium salt], the “C1 026 Wells” value in test [1] is recorded as 9 Wells. Besides, the “In vivo Activity (Guinea pigs) % Inhibition Intraperitoneal, 30 minutes” value in test [5] (blood sample 30 minutes after injection) is 49%. Also, in test [5] (blood sample 60 minutes after injection), the “In vivo Activity (Guinea pigs) % Inhibition Intraperitoneal, 60 minutes” value turned out to be 67%. Moreover, the “In vivo Activity (Guinea pigs) % Inhibition Intraperitoneal, 120 minutes” value in test [5] (blood sample 120 minutes after injection) is reported as 78%. Besides, the “C-Late 035 Wells” value in test [2] was 1 Wells. Besides, the “C-Shunt Inhibition 036 Wells” value in test [3] was determined as 6 Wells.
